Patent US12534455B2, “Phthalazine derivatives as P2X3 inhibitors” (CHIESI FARMACEUTICI S.P.A., priority 2020, dated 2026)
Where two headings read alike, the source gives them in different places.

How the values were obtained:
h P2X3 = biological target: T1, h P2X3 (Homo sapiens, UniProt P56373); assay: In vitro electrophysiology assay for P2X3 (Sophion Qube automated patch-clamp, α,β-MeATP agonist); assay type: cell-based; conditions: for h P2X3 (pIC50 range of activity): Table 3
T1 sequence (P56373 1-397): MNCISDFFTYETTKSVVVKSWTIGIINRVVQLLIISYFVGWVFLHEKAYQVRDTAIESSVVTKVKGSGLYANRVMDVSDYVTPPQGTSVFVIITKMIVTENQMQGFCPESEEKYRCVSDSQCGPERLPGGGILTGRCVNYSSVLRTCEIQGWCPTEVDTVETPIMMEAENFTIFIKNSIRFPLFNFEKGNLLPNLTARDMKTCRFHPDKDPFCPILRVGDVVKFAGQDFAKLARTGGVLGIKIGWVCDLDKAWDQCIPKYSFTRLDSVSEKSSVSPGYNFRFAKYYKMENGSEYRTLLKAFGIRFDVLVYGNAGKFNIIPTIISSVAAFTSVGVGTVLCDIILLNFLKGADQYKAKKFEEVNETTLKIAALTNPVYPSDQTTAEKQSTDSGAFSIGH
Experimental: Pharmacological Activity of the Compounds of the Invention. In Vitro Electrophysiology Assay for P2X3
Cells expressing P2X3 receptors were grown according to standard practice and maintained at 37° C. in a 5% humidified CO2 atmosphere. The cells were seeded into T175 flask 2 days prior to the day of the assay and dissociated from the flasks using TrypLE when grown to confluence of 80-90%. The dissociated cells were resuspended in serum free media at a cell density of 3×10^6 cells/ml and loaded onto the Sophion Qube automated patch-clamp system. The extracellular assay buffer contained 145 mM NaCl, 4 mM KCl, 2 mM CaCl2, 1 mM MgCl2, 10 mM HEPES, and 10 mM glucose at pH 7.4. The intracellular assay solution contained 140 mM CsF, 10 mM NaCl, 10 mM EGTA, 10 mM HEPES at pH 7.2. Agonist stock solutions were prepared in H2O and diluted in bath solution prior to use. All antagonists were prepared as 10 mM stock solutions in DMSO and diluted in bath solution prior to use. All experiments were performed under the whole-cell patch clamp configuration at room temperature with 384 individual cells being voltage clamped at −60 mV simultaneously on the Sophion Qube instrument. Two baseline responses were established with the application of α,β-MeATP (800 nM), with the subsequent agonist applications being washed out using extracellular assay buffer containing 0.5 U/ml apyrase. Following the second agonist application, antagonist was incubated in the absence of α,β-MeATP for 10 minutes. After antagonist preincubation, 800 nM α,β-MeATP and antagonist were co-administered to determine the inhibitory effect of the antagonist. One concentration of an antagonist was assessed against a single cell, with different concentrations of the antagonist applied to other cells on the 384 recording substrate. The control P2X3 current amplitude was taken from the peak current amplitude from the second agonist response prior to preincubation with antagonist. The peak P2X3 current amplitude in the presence of antagonist was used to calculate the inhibitory effect at each concentration of the antagonist according to the following equation: Percentage inhibition of P2X3=(P2X3 control peak amplitude-P2X3 antagonist peak amplitude)/P2X3 control peak amplitude)*100
Concentration-response curves were constructed from ten different concentrations with each concentration of antagonist tested on at least two individual cells. The concentration of the antagonist to inhibit P2X3 current by 50% (IC50) was determined by fitting the data with the following equation: Y=a+[(b−a)/(1+10^((log c−x)d)]
Where ‘a’ is minimum response, ‘b’ is maximum response, ‘c’ is IC50 and ‘d’ is Hill slope.
The results for individual compounds are provided below in Table 2 and are expressed as range of activity.

h P2X2/3 = biological target: T2, h P2X2/3 (Homo sapiens, UniProt P56373+Q9UBL9); assay: In vitro electrophysiology assay for P2X2/3 (same protocol, 10 μM ATP agonist); assay type: cell-based; conditions: Table 3; 10 μM ATP as agonist, mean current amplitude seven seconds after agonist; read-out: h P2X2/3 (pIC50 range of activity) (converted)
T2 construct: same protocol as the P2X3 assay
T2 sequence (P56373 1-397): T1 sequence (P56373 1-397)
T2 sequence (Q9UBL9 1-471): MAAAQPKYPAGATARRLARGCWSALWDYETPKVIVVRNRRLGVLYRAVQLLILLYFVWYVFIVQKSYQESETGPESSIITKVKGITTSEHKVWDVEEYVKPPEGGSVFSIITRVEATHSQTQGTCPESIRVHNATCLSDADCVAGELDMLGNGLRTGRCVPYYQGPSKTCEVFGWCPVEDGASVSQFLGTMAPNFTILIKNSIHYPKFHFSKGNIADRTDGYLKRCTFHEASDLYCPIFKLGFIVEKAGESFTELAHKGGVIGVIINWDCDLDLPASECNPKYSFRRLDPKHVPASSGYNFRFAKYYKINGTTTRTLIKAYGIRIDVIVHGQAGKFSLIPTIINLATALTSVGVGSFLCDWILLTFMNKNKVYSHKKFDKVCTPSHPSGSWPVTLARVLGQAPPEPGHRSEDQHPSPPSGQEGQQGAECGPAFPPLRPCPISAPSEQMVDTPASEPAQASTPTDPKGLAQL
Experimental: Cells expressing P2X3 receptors were grown according to standard practice and maintained at 37° C. in a 5% humidified CO2 atmosphere. The cells were seeded into T175 flask 2 days prior to the day of the assay and dissociated from the flasks using TrypLE when grown to confluence of 80-90%. The dissociated cells were resuspended in serum free media at a cell density of 3×10^6 cells/ml and loaded onto the Sophion Qube automated patch-clamp system. The extracellular assay buffer contained 145 mM NaCl, 4 mM KCl, 2 mM CaCl2, 1 mM MgCl2, 10 mM HEPES, and 10 mM glucose at pH 7.4. The intracellular assay solution contained 140 mM CsF, 10 mM NaCl, 10 mM EGTA, 10 mM HEPES at pH 7.2. Agonist stock solutions were prepared in H2O and diluted in bath solution prior to use. All antagonists were prepared as 10 mM stock solutions in DMSO and diluted in bath solution prior to use. […] One concentration of an antagonist was assessed against a single cell, with different concentrations of the antagonist applied to other cells on the 384 recording substrate. […]
The same assay protocol was used for the P2X2/3 assay as the P2X3 assay with two modifications: 1) 10 μM ATP was used as the agonist; and 2) the mean current amplitude was measured seven seconds after the application of agonist.

[1] = Table 2, whole-cell patch clamp, 800 nM α,β-MeATP, 10 min antagonist preincubation, read-out: h P2X3 (pIC50 range of activity) (converted)
[2] = whole-cell patch clamp, 800 nM α,β-MeATP

IC50 (h P2X3; [1]) | SMILES | also measured
0.316 to 3.16 µM | Cc1ccc(C(C)Nc2nnc(C3CC3)c3ccc(-c4ccn(C)n4)cc23)nn1 (racemic) [Example 16, 4-Cyclopropyl-7-(1-methyl-1H-pyrazol-3-yl)-N-(1-(6-methylpyridazin-3-yl)ethyl)phthalazin-1-amine] | –
0.316 to 3.16 µM | Cc1ccc(C(C)Nc2nnc(C3CCOCC3)c3ccc(-c4ccc(F)cn4)cc23)nn1 (single isomer, unassigned) [Example 11, 7-(5-Fluoropyridin-2-yl)-N-(1-(6-methylpyridazin-3-yl)ethyl)-4-(tetrahydro-2H-pyran-4-yl)phthalazin-1-amine] | –
– | Cc1ccc(CNc2nccc3ccc(-c4ccc(F)cc4)cc23)nn1 [Comparative Example A, reference compound] | IC50 (h P2X3; in vitro assay on P2X3 as described above, read-out: activity on receptor P2X3 expressed as pIC50 (converted)): > 3.16 µM
0.316 to 3.16 µM | Cc1cnc(-c2ccc3c(C4CCOCC4)nnc(NCc4ccc(C)nn4)c3c2)nc1 [Example 1, N-((6-Methylpyridazin-3-yl)methyl)-7-(5-methylpyrimidin-2-yl)-4-(tetrahydro-2H-pyran-4-yl)phthalazin-1-amine] | IC50 (h P2X2/3): 3.16 to 31.6 µM; h P2X3 (pIC50 range of activity) (h P2X3; [2]): ++ (++: 6.5<pIC50 h P2X3 or h P2X2/3>5.5)
0.316 to 3.16 µM | Fc1ccc(-c2ccc3cnnc(NCC4CC4)c3c2)cc1 [Example 2, N-(Cyclopropylmethyl)-7-(4-fluorophenyl)phthalazin-1-amine] | –
< 0.316 µM | Cc1ccc(CNc2nncc3ccc(-c4ccc(F)cc4)cc23)nn1 [Example 3, 7-(4-Fluorophenyl)-N-((6-methylpyridazin-3-yl)methyl)phthalazin-1-amine] | –
0.316 to 3.16 µM | C[C@@H](Nc1nnc(C2CC2)c2ccc(-c3ccc(F)cc3)cc12)c1cnc(C(F)(F)F)nc1 [Example 4, (R)-4-Cyclopropyl-7-(4-fluorophenyl)-N-(1-(2-(trifluoromethyl)pyrimidin-5-yl)ethyl)phthalazin-1-amine] | –
< 0.316 µM | Cc1ccc([C@@H](C)Nc2nnc(C3CC3)c3ccc(-c4ccc(F)cc4)cc23)nn1 [Example 5, (R)-4-Cyclopropyl-7-(4-fluorophenyl)-N-(1-(6-methylpyridazin-3-yl)ethyl)phthalazin-1-amine] | IC50 (h P2X2/3): 0.316 to 3.16 µM; h P2X3 (pIC50 range of activity) (h P2X3; [2]): +++ (+++: pIC50 h P2X3 or h P2X2/3>6.5)
0.316 to 3.16 µM | C[C@@H](Nc1nnc(C2CCOCC2)c2ccc(-c3ccc(F)cc3)cc12)c1cnc(C(F)(F)F)nc1 [Example 6, (R)-7-(4-Fluorophenyl)-4-(tetrahydro-2H-pyran-4-yl)-N-(1-(2-(trifluoromethyl)pyrimidin-5-yl)ethyl)phthalazin-1-amine] | –
< 0.316 µM | Cc1ccc([C@@H](C)Nc2nnc(C3CCOCC3)c3ccc(-c4ccc(F)cc4)cc23)nn1 [Example 7, (R)-7-(4-Fluorophenyl)-N-(1-(6-methylpyridazin-3-yl)ethyl)-4-(tetrahydro-2H-pyran-4-yl)phthalazin-1-amine] | –
0.316 to 3.16 µM | Cc1ccc(CNc2nnc(C3CCOCC3)c3ccc(-c4ccc(F)cn4)cc23)nn1 [Example 9, 7-(5-Fluoropyridin-2-yl)-N-((6-methylpyridazin-3-yl)methyl)-4-(tetrahydro-2H-pyran-4-yl)phthalazin-1-amine] | –
0.316 to 3.16 µM | Cc1ccc(CNc2nnc(CC3CCOCC3)c3ccc(-c4ccc(F)cn4)cc23)nn1 [Example 10, 7-(5-Fluoropyridin-2-yl)-N-((6-methylpyridazin-3-yl)methyl)-4-((tetrahydro-2H-pyran-4-yl)methyl)phthalazin-1-amine] | –
< 0.316 µM | Cc1ccc(CNc2nncc3ccc(-c4ncc(C)s4)cc23)nn1 [Example 13, N-[(6-Methylpyridazin-3-yl)methyl]-7-(5-methylthiazol-2-yl)phthalazin-1-amine] | –
0.316 to 3.16 µM | Cc1cnc(-c2ccc3c(CC4CCOCC4)nnc(NCc4nc(C(F)(F)F)no4)c3c2)s1 [Example 14, 7-(5-Methylthiazol-2-yl)-4-((tetrahydro-2H-pyran-4-yl)methyl)-N-((3-(trifluoromethyl)-1,2,4-oxadiazol-5-yl)methyl)phthalazin-1-amine] | –
0.316 to 3.16 µM | Cc1ccc(CNc2nnc(CC3CCOCC3)c3ccc(-c4ncc(C)s4)cc23)nn1 [Example 15, N-((6-Methylpyridazin-3-yl)methyl)-7-(5-methylthiazol-2-yl)-4-((tetrahydro-2H-pyran-4-yl)methyl)phthalazin-1-amine] | –
0.316 to 3.16 µM | Cc1ccc(C(C)Nc2nnc(C3CCOCC3)c3ccc(-c4ccn(C)n4)cc23)nn1 (stereo not drawn) [Example 17, 7-(1-Methylpyrazol-3-yl)-N-[1-(6-methylpyridazin-3-yl)ethyl]-4-tetrahydropyran-4-yl-phthalazin-1-amine] | –
0.316 to 3.16 µM | Cc1ccc(C(C)Nc2nnc(C3CC3)c3ccc(-c4ccn(C)n4)cc23)nn1 (stereo not drawn) [Example 19, 4-Cyclopropyl-7-(1-methyl-1H-pyrazol-3-yl)-N-(1-(6-methylpyridazin-3-yl)ethyl)phthalazin-1-amine] | –
